# Reference: patent publication US5916892A, “Trans cyclopentanyl deazaadenyl analogs useful as immunosuppressants” (Hoechst Marion Roussel, Inc., priority 1997, dated 1999)
# Counter-ions that a name gives are not always drawn.
# Key:
# [1] = system: Rat macrophage antigen presentation and the subsequent production of Interleukin-2; assay: Regulation of macrophage antigen presentation (mBSA) to rat T-cell hybridoma, Interleukin-2 measured; format: cell-based, Lewis (LEW/N) rat
# Procedure: Using the method of Ku (Cellular Immunology 130,(1990)) and a Lewis (LEW/N) rat T-cell hybridoma reactive with the protein methylated bovine serum albumin (mBSA), the ability of a compound of formula (1) to regulate M.phi. antigen presentation in vitro may be measured. Peritoneal macrophages obtained from LEW/N rats are plated into tissue culture and treated with 100 ug of mBSA and drug. A control is prepared similarly. After a period of 18 hours the cells are washed and incubated with the T-cell hybridoma for an additional 12 hours. Supernatants from these cultures are obtained and measured for content of Interleukin-2, a T-cell derived lymphokine which is produced by activated T-cells.
# [2] = system: endotoxin-induced septic shock; assay: Mouse endotoxin lethality model (D-galactosamine and LPS); format: in vivo, CF1 mice; conditions: 100 mg/kg i.p., pretreated at t=-1 hr; death observed over 8-72 hours
# Procedure: Using the method of Silverstein, (J. Exp. Med. 173, 357 (1991)) a mouse endotoxin lethality model may be used to determine if a compound of formula (1) has the ability to inhibit endotoxin-induced septic shock which is dependent on the production of Tumor Necrosis Factor-α (TNF-α). CF1 mice pretreated at time (t)=-1 hr with drug are challenged with 18 mg of D-glactoseamine and 50 ng of LPS, then observed for death over an 8-72 hour period.
structure (smiles),measurement,setting,value
"Nc1ncnc2c1ncn2[C@@H]1CC[C@@H](O)C1 [(1R,3R)-TRANS-1(9-ADENYL)CYCLOPENTAN-3-OL HYDROCHLORIDE]",T-cell activation / antigen presentation and Interleukin-2 production (in words),[1]; 0.1 to 100 uM,inhibits T-cell activation
same,inhibition at 0.1 µM,"[1]; Rattus norvegicus, Macrophage, In Vitro Concentration 0.1 uM, IL-2 production",7.6%
same,inhibition at 1 µM,"[1]; Rattus norvegicus, Macrophage, In Vitro Concentration 1.0 uM, IL-2 production",30.9%
same,inhibition at 10 µM,"[1]; Rattus norvegicus, Macrophage, In Vitro Concentration 10.0 uM, IL-2 production",48.7%
same,inhibition at 100 µM,"[1]; Rattus norvegicus, Macrophage, In Vitro Concentration 100.0 uM, IL-2 production",55.3%
same,protection against endotoxin lethality,[2],protects against endotoxin lethality
